According to patent US7666893B2, “Method for treatment of neurodegenerative disorders” (MedDEV Inc., priority 2006, dated 2010):

Tests used:
Assay type in all cases: in vivo, human
[1] = tested on: multiple sclerosis (MS) patients; experiment: Treatment of multiple sclerosis patients via transdermal patch; settings: for outcome on MS symptoms with cyclic dosing schedule: repeated
Description: (§1) Accordingly, material suitable for transdermal application can be prepared using a 1:1000 dilution of methyl 4-imidazolecarboxylate CAS number 17325-26-7, available from Sigma-Aldrich Corporation), combined with a pluronic lecithin organogel transdermal penetration enhancing vehicle, with hydrochloric acid being added to maintain the pH of the solution that or below 3. The resultant mixture may be dried and deposited on or applied to a suitable adhesive backing to form a transdermal patch, covered with quick release paper or other layer for protection prior to use.
The following illustrative examples relate to actual practice of the invention described above in the treatment of multiple sclerosis.
A person who had been suffering from multiple sclerosis (MS) for 51 years was treated in accordance with the method of the present invention. The patient suffered from debilitating intention tremors in their hands, poor balance, garbled speech, right foot tingling and right leg weakness, left foot tingling and weakness. Within 60 minutes of applying the first dose of 0.125 mcg methyl 4-imidazolecarboxylate via transdermal patch application, the intention tremors were alleviated, but noted some waxing and waning of other symptoms throughout the first day of treatment. […] After the third consecutive day of treatment, the patient had no symptoms of MS and they were able to remain free of symptoms for the next 36 hours without applying the treatment of the present invention. After 36 hours of not administering the treatment, they reported that their MS symptoms were returning, they then applied 0.125 mcg methyl 4-imidazolecarboxylate via transdermal patch and their MS symptoms were alleviated within 30 minutes of applying the treatment. They administered 0.125 mcg methyl 4-imidazolecarboxylate per day for next 2 consecutive days and was again able to remain free of all of the MS symptoms while wearing the transdermal patch containing the treatment dose and then remained free of symptoms for the following 2 days not administering the treatment.
A person who has been suffering from multiple sclerosis (MS) for 21 years was treated in accordance with the method of the present invention. The patient suffered from left foot tingling and numbness, left hand tingling and numbness, left leg weakness, slurred speech, cognitive impairment, fatigue, facial/jaw pain, and heaviness in limbs. […] The patient remained free of all MS symptoms with the administration of 0.15 mcg methyl 4-imidazolecarboxylate per day for the next two consecutive days. The patient was able to remain free of MS symptoms for 36 hours following the two consecutive days of application of present invention without use of treatment. After 36 hours of not using the present invention treatment, the patient experienced left foot tingling. The patient then applied 0.15 mcg methyl 4-imidazolecarboxylate per day via transdermal patch for two consecutive days and all MS symptoms alleviated. The patient was able to remain free of all MS symptoms for the next 4 days without applying the present invention treatment. […] The following 5 days the patient remained free of all MS symptoms without administering treatment of present invention.
Each patient has continued to maintain such improvements in their symptoms of MS by applying 0.2 mcg methyl 4-imidazolecarboxylate via transdermal patch for one day followed by two consecutive days without administering treatment and then repeating such dosing schedule.

fibromyalgia patient = experiment: Treatment of fibromyalgia patient via transdermal patch; settings: Example Five
Description: as §1
A person who has been suffering from fibromyalgia for 10 years was treated in accordance with the method of the present invention. […] The patient has reported only two incidences of increased fatigue, which lasted only one day per incidence, and these incidences were preceded by very stressful life events.

[2] = tested on: male MS patients with erectile dysfunction; experiment: Sexual function in male MS patients with erectile dysfunction; settings: Example Six
Description: Two male MS patients, a person and a person, experienced decreased libido, decreased penile sensation, and erectile dysfunction. […] These improvements in sexual function have persisted while continuing on the treatment. […] Their ability to achieve a full erection numerous times following repeated ejaculations was restored the same day that they resumed the treatment.

[3] = tested on: patient with major clinical depression; experiment: Treatment of patient with major clinical depression via transdermal patch; settings: Example Seven
Method: A person with a family history of depression and has a personal history of major clinical depression. Hospitalized in 1975 and again in 1990 with major episodes of depression including extreme suicidal ideations. Numerous medications were tried to help stabilize their condition. Since 1990 they have been taking 25 mg to 75 mg of nortriptyline to manage their depression and reports having to increase the dose to has high as 100 mg during stressful life events.
The patient reported suffering from the following symptoms despite taking nortriptyline:
They also reported very vivid dreams and they were able to recall the details of their dreams easily. […] Their constipation and dry mouth have resolved as well. They also have reported that their hair is regaining its original pigment and that their eyebrows are coming in darker and thicker resembling their younger years.

patients = experiment: Transdermal dosage range and regimen observations in patients
Method: As will be described in the following examples, dosages in the range from about 0.1 mcg to about 0.2 mcg per day have been found generally preferable, with some variation on a patient by patient basis. […] While the mechanism behind this is not fully understood, it is believed that the effectiveness of the periodic regimen, with a resting period of about 48 hours between applications, may be due to an associated half life period (within the body of the patient) of the material or an agent that is produced by the material.

[4] = tested on: multiple sclerosis (MS) patients; experiment: Treatment of multiple sclerosis patients via transdermal patch; settings: Example Three, four MS patients (2 female, 2 male), 0.2 mcg transdermal patch one day, two days off, repeated
[5] = 0.2 mcg transdermal patch one day on, two days off

COC(=O)c1cnc[nH]1 [methyl 4-imidazolecarboxylate]
MS symptoms by the second day of treatment ([1]; Example One, 0.125 mcg per day, transdermal patch): All MS symptoms were alleviated
time to alleviation of returned MS symptoms after re-applying treatment ([1]; Example One, 0.125 mcg transdermal patch after 36 hours without treatment): ≤ 30 min
outcome on MS symptoms with cyclic dosing schedule ([1]; Example One, 0.2 mcg one day followed by 2 consecutive days without treatment): successfully alleviated all of the MS symptoms
time to alleviation of intention tremors after first dose ([1]; Example One, MS patient, first dose 0.125 mcg, transdermal patch): ≤ 60 min
time free of symptoms not administering the treatment ([1]; Example One, after re-application and 2 further consecutive days of 0.125 mcg per day): 2 days
time free of symptoms without applying the treatment ([1]; Example One, after third consecutive day of 0.125 mcg treatment): 36 h
effect on returned left foot tingling after single application ([1]; Example Two, 0.15 mcg transdermal patch on fifth day without treatment): symptoms resolved immediately
outcome on MS symptoms with cyclic dosing schedule ([1]; Example Two, 0.2 mcg transdermal patch one day, 2 consecutive days without treatment): continued to remain free of all MS symptoms
time to alleviation of all MS symptoms after first dose ([1]; Example Two, MS patient, first dose 0.15 mcg, transdermal patch): ≤ 30 min
time free of all MS symptoms without applying treatment ([1]; Example Two, after second course of 0.15 mcg per day for two consecutive days): 4 days
time free of MS symptoms without use of treatment ([1]; Example Two, following first dose and two consecutive days of 0.15 mcg per day): 36 h
time free of all MS symptoms without administering treatment ([1]; Example Two, following single 0.15 mcg application): 5 days
maintained outcome with cyclic dosing schedule (fibromyalgia patient; [5]): remained free of pain, and improved mental clarity
incidences of increased fatigue during treatment (fibromyalgia patient; each lasting one day, preceded by very stressful life events): two
patient-reported effect within hours of first dose (fibromyalgia patient; person with fibromyalgia, first dose 0.2 mcg): decreased pain, decreased fatigue and improved mental clarity
effect of stopping the treatment for one week ([2]; patient, restored the same day treatment resumed): decrease in libido and inability in achieving a full erection
time to achieve a full erection after first ejaculation ([2]; two male MS patients, 0.2 mcg): 1 to 3 min
patient-reported sexual function within three days of first administration ([2]; two male MS patients, 0.2 mcg (entry two)): increased libido, full erections, increased penile sensation
symptoms of depression while continuing on the treatment [3, 5]: remained free of all symptoms of depression
patient-reported effect the first day of treatment ([3]; person, 0.2 mcg): increased energy
effectiveness of periodic regimen (patients; approximately 0.2 mcg once every three days): especially effective for the majority of patients
adverse effect at high dosages (patients; transdermal, dosages above approximately 3.0 mcg per day): negative cognitive effects, in a form of mental haziness or sleepiness
effect observed at low dosages (patients; transdermal, dosages below about 0.01 mcg per day): negligible effect
patient-reported change in MS symptoms (bladder function, fatigue, tingling and numbness, balance, cognition and memory, walking, sleep) [4]: improvement in their MS symptoms

CNCCC=C1c2ccccc2CCc2ccccc21 [nortriptyline, reference compound]
patient-reported side effects ([3]; 25 mg to 75 mg (up to 100 mg) nortriptyline since 1990): dry mouth and constipation
